Laboratory results taken from article PMC2931818 (Anti-cancer drugs, 2010).

Experiments:
[1] = 5-FU plasma concentration at steady state during 46-h infusion; assay type: in vivo, human; settings: cycle 2; 2400 mg/m^2 46-h continuous infusion
[2] = Edotecarin plasma pharmacokinetics in cancer patients after 1-h IV infusion; assay type: in vivo, human; settings: for AUC (0-inf) / AUC (0–24): 6 mg/m^2 dose only; for AUC (0-inf) / AUC (0–24) / CL (total body-clearance) / T (terminal half-life) / Vss / Dose normalized AUC (0-inf) / Dose normalized AUC (0–24) / Dose normalized Cmax / half-life / Tmax: mean ± SD; for Dose normalized AUC (0-inf) / Dose normalized AUC (0–24) / Dose normalized Cmax: normalized to a 1 mg/m^2 dose; for half-life / Tmax: human, plasma, intravenous; for half-life: T (terminal half-life)
[3] = system: advanced/metastatic solid tumors; experiment: Tumor response by Response Evaluation Criteria in Solid Tumors; assay type: in vivo, human; settings: 14 treated patients, edotecarin/5-FU/LV
[4] = system: patients with advanced/metastatic solid tumors
topoisomerase I (Topo I) = settings: cited from earlier work
[5] = system: human CRC model (HCT-116); settings: no added toxicity; cited from earlier work
[6] = system: cells that have acquired resistance related to P-glycoprotein; settings: cited from earlier work
liver micrometastases = settings: mice; cited from earlier work
[7] = system: patients with solid tumors; settings: single agent, cited from earlier work
[8] = system: irinotecan-naïve patients with CRC; settings: single agent 13 mg/m^2, cited from earlier work
P450 = settings: cited from earlier work
[9] = system: HCT-116 colon, SCC-25 tongue, A427 NSCL and J82 human carcinoma cell lines; settings: variety of cell lines (e.g. colon, non-small cell, lung, tongue and bladder); cited from earlier work
[10] = all 14 patients, all cycles, edotecarin with 5-FU/LV

Q: For O=c1[nH]cc(F)c(=O)[nH]1 [5-FU, 5-fluorouracil], which “average concentration obtained at steady state” value [1] is on record?
A: 455.9 ± 222.8 ng/mL

Q: Which results are given for O=C1c2c(c3c4ccc(O)cc4n([C@@H]4O[C@H](CO)[C@@H](O)[C@H](O)[C@H]4O)c3c3[nH]c4cc(O)ccc4c23)C(=O)N1NC(CO)CO [Edotecarin, 6–N-(1-hydroxymethyla-2-hydroxyl) ethylamino-12,13-dihydro-13-(beta-D-glucopyranosyl)-5Hindolo(2,3-a)-pyrrolo(3,4-c)-carbazole-5,7(6H)-dione]?
A: AUC (0-inf) ([2]; cycle 1): 124.5 ± 34.7 ng/h/mL; AUC (0–24) ([2]; cycle 1): 91.0 ± 21.6 ng/h/mL; CL (total body-clearance) ([2]; cycle 1): 51.3 ± 12.4 l/h/m^2; T (terminal half-life) ([2]; cycle 1): 25.3 ± 6.4 h; Vss ([2]; cycle 1): 884.4 ± 296.0 l/m^2; Dose normalized AUC (0-inf) ([2]; cycle 1): 20.7 ± 5.4 ng/h/mL; Dose normalized AUC (0–24) ([2]; cycle 1): 15.3 ± 3.6 h/ng/mL; Dose normalized Cmax ([2]; cycle 1): 13.2 ± 2.9 ng/mL; AUC (0-inf) ([2]; cycle 2): 91.7 ± 31.9 ng/h/mL; AUC (0–24) ([2]; cycle 2): 65.3 ± 22.9 ng/h/mL; CL (total body-clearance) ([2]; cycle 2): 73.3± 29.7 l/h/m^2; T (terminal half-life) ([2]; cycle 2): 20.3 ± 4.2 h; Vss ([2]; cycle 2): 1408.7± 999.7 l/m^2; Dose normalized AUC (0-inf) ([2]; cycle 2): 15.4 ± 5.1 ng/h/mL; Dose normalized AUC (0–24) ([2]; cycle 2): 11.1 ± 3.7 h/ng/mL; Dose normalized Cmax ([2]; cycle 2): 10.1 ± 4.4 ng/mL; half-life ([2]; cycle 1): ~1500 min; half-life ([2]; cycle 2): ~1200 min; Tmax ([2]; cycle 1): 28.8 ± 13.2 min; Tmax ([2]; cycle 2): 49.8 min; disposition after completion of the IV administration ([2]; very rapid initial decline then much slower reduction in plasma concentrations): bi-exponential disposition; patients with progressive disease as best overall response [3]: six patients; patients with stable disease as best overall response [3]: seven patients; patients with complete response as best overall response ([3]; patient with HCC, confirmed by cycle 5): one patient; patients with DLT (grade 3 neutropenia not recovered to grade 1 by day 21) ([4]; 6 mg/m^2 edotecarin cohort without 5-FU bolus, expanded to five patients): one patient; patients with grade 4 neutropenia (DLT) ([4]; 8 mg/m^2 edotecarin cohort, no 5-FU bolus, two of the three patients): 66%; deaths within 30 days of the last treatment dose ([4]; 14 patients): No patients died; patients discontinued from the study because of adverse events (neutropenia) ([4]; 14 patients, 90 cycles): four patients; patients with dose reductions because of AEs (neutropenia) ([4]; 14 patients, 90 cycles): three patients; patients with serious adverse events ([4]; 14 patients, 90 cycles, two treatment-related, two unrelated): four patients; patients with fatigue (AE overall) [4, 10]: 64%; patients with neutropenia (AE overall) [4, 10]: 57%; patients with pyrexia (AE overall) [4, 10]: 50%; patients with vomiting (AE overall) [4, 10]: 42%; patients with fatigue during cycle 1 ([4]; all 14 patients, cycle 1): 35%; patients with nausea during cycle 1 ([4]; all 14 patients, cycle 1): 50%; patients with neutropenia during cycle 1 ([4]; all 14 patients, cycle 1): 50%; changes in clinical laboratory parameters, vital signs measurements, or ECG results ([4]; edotecarin with 5-FU/LV): No clinically important treatment-related changes; gastrointestinal toxicities, especially diarrhea ([4]; edotecarin with 5-FU/LV, in general): minimal; maximum tolerated dose ([4]; edotecarin with infusional 5-FU/LV every 2 weeks, only 6 and 8 mg/m^2 explored): no maximum tolerated dose was declared; induction of single-strand DNA cleavage (topoisomerase I (Topo I); at different DNA sequences): more effectively than NB-506 or camptothecin; stability of induced DNA-Topo I complexes (topoisomerase I (Topo I)): more stable than those occurring after exposure to camptothecin or NB-506; efficacy in combination with 5-FU (concurrent treatment) [5]: efficacy superior in combination than with the drugs as single agents; activity on P-glycoprotein-related resistant cells [6]: effective; inhibition of proliferation of liver micrometastases (liver micrometastases): highly effective; recommended dose for phase II studies ([7]; 3-week schedule with 1 week permitted for recovery): 13 mg/m^2; recommended phase II dose ([7]; once every 21 days, ref Hurwitz et al. [8]): 13 mg/m^2; patients with stable disease (including four minor responses) ([8]; 24 patients, 13 patients): 57%; patients with partial response ([8]; 24 patients, three patients): 13%; median time to tumor progression [8]: 7.1 months; patients with grade 3/4 febrile neutropenia ([8]; one patient): 4.2%; formation of active metabolites (P450): does not form any active metabolites; substrate for in vitro P450-mediated metabolism (P450): is not a substrate; effect of the combination of edotecarin with 5-FU [9]: additive effect
